Reference: patent publication US20080182798A1, “Novel effectors of dipeptidyl peptidase IV” (priority 1998, published 2008)
Counter-ions that a name gives are not always drawn.

Assays:
[1] = molecular target: dipeptidyl peptidase IV (Homo sapiens, UniProt P27487); test: Action of effectors on the DP IV-catalysed hydrolysis of H-Gly-Pro-pNA; type: biochemical; conditions: 0.4 mM H-Gly-Pro-pNA, 30° C., pH 7.6, ionic strength 0.125; for remaining activity at 10 µM / % Residual activity of DP IV in the presence of 10 μM effector: 10 μM effector; for remaining activity at 10 µM: read-out: % Residual activity of DP IV in the presence of 10 μM effector; for Ki: read-out: Effector affinity to DP IV: Ki
dipeptidyl peptidase IV, sequence (P27487 whole entry, species assumed): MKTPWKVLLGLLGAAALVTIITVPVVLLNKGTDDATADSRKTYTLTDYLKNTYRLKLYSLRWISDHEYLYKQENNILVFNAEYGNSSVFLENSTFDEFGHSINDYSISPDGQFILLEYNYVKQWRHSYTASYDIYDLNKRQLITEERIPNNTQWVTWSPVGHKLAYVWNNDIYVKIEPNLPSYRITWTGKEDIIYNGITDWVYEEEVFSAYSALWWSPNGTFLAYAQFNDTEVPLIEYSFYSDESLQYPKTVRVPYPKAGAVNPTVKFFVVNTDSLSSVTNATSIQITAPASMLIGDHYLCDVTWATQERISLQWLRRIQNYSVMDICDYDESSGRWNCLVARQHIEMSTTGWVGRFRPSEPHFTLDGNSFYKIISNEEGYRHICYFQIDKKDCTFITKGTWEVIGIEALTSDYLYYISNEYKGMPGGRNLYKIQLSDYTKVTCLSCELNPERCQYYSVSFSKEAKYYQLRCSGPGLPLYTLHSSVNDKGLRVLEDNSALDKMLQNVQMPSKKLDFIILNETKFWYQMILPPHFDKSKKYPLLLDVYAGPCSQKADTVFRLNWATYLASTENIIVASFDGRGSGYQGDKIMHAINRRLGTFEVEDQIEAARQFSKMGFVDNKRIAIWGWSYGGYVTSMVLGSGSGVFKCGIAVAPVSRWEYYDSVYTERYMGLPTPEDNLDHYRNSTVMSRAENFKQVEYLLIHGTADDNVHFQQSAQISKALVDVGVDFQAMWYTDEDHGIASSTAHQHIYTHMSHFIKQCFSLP

[2] = test system: circulating blood glucose; test: Circulating blood glucose after oral administration with synchronous glucose tolerance test; type: in vivo, Wistar rat; conditions: for Glucose concentration in % L-allo-Ile-thiazolidide-treated: oral 20 μM, within 60 min, % based on normoglycaemic values (control 100)
[3] = molecular target: T1, peptide transporter Pep T1 (Homo sapiens, UniProt P46059); test: Transport by the peptide transporter Pep T1; type: in vitro ADME; conditions: in comparison with L-threo-isoleucyl thiazolidide
T1 sequence (P46059 1-708): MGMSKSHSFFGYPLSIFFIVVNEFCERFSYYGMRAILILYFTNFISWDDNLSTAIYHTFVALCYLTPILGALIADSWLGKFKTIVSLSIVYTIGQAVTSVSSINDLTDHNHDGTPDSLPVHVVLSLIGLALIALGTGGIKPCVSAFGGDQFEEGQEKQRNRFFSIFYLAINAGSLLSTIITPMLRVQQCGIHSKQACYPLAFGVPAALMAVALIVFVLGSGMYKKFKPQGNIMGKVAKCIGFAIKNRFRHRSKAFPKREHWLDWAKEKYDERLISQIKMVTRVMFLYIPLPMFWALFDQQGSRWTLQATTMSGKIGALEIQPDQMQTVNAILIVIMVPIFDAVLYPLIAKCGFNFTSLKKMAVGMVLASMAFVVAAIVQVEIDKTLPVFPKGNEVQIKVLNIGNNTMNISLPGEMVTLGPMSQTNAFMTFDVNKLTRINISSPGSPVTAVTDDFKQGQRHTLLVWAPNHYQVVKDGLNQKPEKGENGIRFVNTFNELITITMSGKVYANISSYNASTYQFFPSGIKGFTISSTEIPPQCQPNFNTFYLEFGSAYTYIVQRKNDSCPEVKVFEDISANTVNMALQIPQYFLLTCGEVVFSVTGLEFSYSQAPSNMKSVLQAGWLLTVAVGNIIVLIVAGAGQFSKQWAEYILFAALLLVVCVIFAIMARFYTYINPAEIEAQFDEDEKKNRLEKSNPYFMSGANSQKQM

[4] = Testing the solubility of salts of Ile-Thia in distilled water; type: physicochemical; conditions: H2Odist.
Protocol: Testing the Solubility of Salts of Ile-Thia
Addition of 100 μl H2Odist.

remaining activity at 10 µM [1] [%] | Ki [1] [µM] | Compound | also measured
83.1 | 12 | NC(=O)CC(N)C(=O)N1CCCC1 (centres unmarked) [H-Asn-pyrrolidide] | 
47.2 | 3.5 | NC(=O)CC(N)C(=O)N1CCSC1 (centres unmarked) [H-Asn-thiazolidide] | 
88.2 | 13 | NC(CC(=O)NO)C(=O)N1CCCC1 (centres unmarked) [H-Asp(NHOH)-pyrrolidide] | 
54.5 | 8.8 | NC(CC(=O)NO)C(=O)N1CCSC1 (centres unmarked) [H-Asp(NHOH)-thiazolidide] | 
81.6 | 14 | NC(CC(=O)O)C(=O)N1CCCC1 (centres unmarked) [H-Asp-pyrrolidide] | 
45.6 | 2.9 | NC(CC(=O)O)C(=O)N1CCSC1 (centres unmarked) [H-Asp-thiazolidide] | 
 | 2.8 | NC(CCC(=O)NO)C(=O)N1CCCC1 (centres unmarked) [H-Glu(NHOH)-pyrrolidide] | % Residual activity of DP IV in the presence of 10 μM effector [1]: 44.9%
36.5 | 1.7 | NC(CCC(=O)NO)C(=O)N1CCSC1 (centres unmarked) [H-Glu(NHOH)-thiazolidide] | 
25 | 0.61 | NC(CCC(=O)O)C(=O)N1CCSC1 (centres unmarked) [H-Glu-thiazolidide] | 
49.7 | 3.5 | NC(Cc1c[nH]cn1)C(=O)N1CCCC1 (centres unmarked) [H-His-pyrrolidide] | 
35.2 | 1.8 | NC(Cc1c[nH]cn1)C(=O)N1CCSC1 (centres unmarked) [H-His-thiazolidide] | 
 |  | CC[C@@H](C)[C@H](N)C(=O)N1CCSC1 [H-L-allo-Ile-thiazolidide, L-allo-isoleucyl thiazolidide] | Glucose concentration in % L-allo-Ile-thiazolidide-treated ([2]; Wistar rat (diabetes 2b-model, obese)): 73%; Glucose concentration in % L-allo-Ile-thiazolidide-treated ([2]; Wistar rat, normal): 82%; Degree of action with respect to glucose modulation ([2]; in comparison with L-threo-isoleucyl thiazolidide): approximately the same degree of action; Improvement in transport by the peptide transporter Pep T1 [3]: approximately five-fold
13.6 | 0.27 | CC(C)C(N)C(=O)N1CCSC1 (centres unmarked) [H-Val-thiazolidide] | 
 |  | CC[C@H](C)[C@H](N)C(=O)N1CCSC1 [L-threo-IT*F, L-threo-isoleucyl thiazolidide fumarate] | Wettability and decomposition in water [4]: scarcely wettable and does not decompose; Solubility: concentration at complete dissolution ([4]; visual): 2.63%
100 | > 1000 | C[C@H]1O[C@H](O[C@H]2[C@H](O)[C@@H](O)[C@@H](O[C@H]3[C@H](O)[C@@H](O)C(O)O[C@@H]3CO)O[C@@H]2CO)[C@H](O)[C@@H](O)[C@@H]1N[C@H]1C=C(CO)[C@@H](O)[C@H](O)[C@H]1O (some centres unmarked) [acarbose, reference compound] | 
100 | > 1000 | COc1ccc(Cl)cc1C(=O)NCCc1ccc(S(=O)(=O)NC(=O)NC2CCCCC2)cc1 [glibenclamide, reference compound] | 
100 | > 1000 | CN(C)C(=N)N=C(N)N [metformin, reference compound] | 

Compound | remaining activity at 10 µM [1] [%] | Ki [1] [µM] | also measured
CC[C@H](C)[C@H](N)C(=O)N1CC1 [H-Ile-azididide] |  | 3.1 | % Residual activity of DP IV in the presence of 10 μM effector [1]: 43.8%
